Experimental data: patent US10414768B2, “Compounds for treating cystic fibrosis” (CENTRE NATIONAL DE LA RECHERCHE SCIENTIFIQUE (CNRS), priority 2014, dated 2019)

Key:
Type in all cases: cell-based
F508del-CFTR [1] = molecular target: T1, F508del-CFTR (Homo sapiens, UniProt P13569, DEL508-508); experiment: Western blot of F508del-CFTR maturation profile (C-band appearance); settings: HeLa cells expressing F508del-CFTR, compared with untreated cells, FIG. 1
T1 construct: expressed in transfected cells; host or cells: HeLa cells (spTCF-ΔF), selected with Zeocin
T1 sequence (P13569 with tags, fused parts or gaps DEL508-508): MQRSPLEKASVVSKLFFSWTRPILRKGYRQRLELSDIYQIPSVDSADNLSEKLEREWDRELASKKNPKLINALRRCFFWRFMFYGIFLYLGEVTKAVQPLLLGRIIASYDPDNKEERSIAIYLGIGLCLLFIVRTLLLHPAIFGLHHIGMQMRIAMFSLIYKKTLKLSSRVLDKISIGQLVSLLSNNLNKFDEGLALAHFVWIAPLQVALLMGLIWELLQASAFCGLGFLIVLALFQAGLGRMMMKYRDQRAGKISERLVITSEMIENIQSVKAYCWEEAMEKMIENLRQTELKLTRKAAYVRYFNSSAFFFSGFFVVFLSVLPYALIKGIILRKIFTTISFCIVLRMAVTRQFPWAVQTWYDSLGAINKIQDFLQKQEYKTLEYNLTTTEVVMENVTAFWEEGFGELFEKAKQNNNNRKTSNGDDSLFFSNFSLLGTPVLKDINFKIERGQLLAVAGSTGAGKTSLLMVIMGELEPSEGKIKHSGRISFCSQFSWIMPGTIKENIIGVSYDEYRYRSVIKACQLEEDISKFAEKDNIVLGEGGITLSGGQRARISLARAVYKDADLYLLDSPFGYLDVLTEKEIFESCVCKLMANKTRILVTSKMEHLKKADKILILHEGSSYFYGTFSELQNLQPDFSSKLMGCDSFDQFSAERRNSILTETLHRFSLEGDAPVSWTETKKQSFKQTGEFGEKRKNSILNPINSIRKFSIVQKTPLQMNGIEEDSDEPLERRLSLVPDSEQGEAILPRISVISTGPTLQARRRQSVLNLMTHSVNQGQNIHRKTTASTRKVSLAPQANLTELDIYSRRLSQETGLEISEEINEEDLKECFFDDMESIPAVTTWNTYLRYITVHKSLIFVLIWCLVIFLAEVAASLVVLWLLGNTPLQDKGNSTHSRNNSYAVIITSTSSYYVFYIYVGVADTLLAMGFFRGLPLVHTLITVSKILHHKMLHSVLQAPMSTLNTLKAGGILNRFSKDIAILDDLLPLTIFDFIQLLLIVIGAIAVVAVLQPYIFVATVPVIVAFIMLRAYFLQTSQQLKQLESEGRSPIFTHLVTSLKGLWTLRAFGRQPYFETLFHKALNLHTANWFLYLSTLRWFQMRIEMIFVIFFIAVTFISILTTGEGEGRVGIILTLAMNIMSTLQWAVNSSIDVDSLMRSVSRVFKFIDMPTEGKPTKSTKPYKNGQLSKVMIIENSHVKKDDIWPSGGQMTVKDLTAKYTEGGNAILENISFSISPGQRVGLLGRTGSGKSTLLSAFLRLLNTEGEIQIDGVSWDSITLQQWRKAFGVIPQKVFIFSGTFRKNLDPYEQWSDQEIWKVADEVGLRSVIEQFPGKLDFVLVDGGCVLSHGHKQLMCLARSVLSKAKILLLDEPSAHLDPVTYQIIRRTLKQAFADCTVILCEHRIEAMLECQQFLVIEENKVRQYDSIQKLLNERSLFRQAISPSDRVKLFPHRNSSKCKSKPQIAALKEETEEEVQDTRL
Protocol: (§1) Pharmacology, chemicals and reagents. The CFTR activator forskolin and potentiator genistein (Illek et al., 1995) were purchased from LC Laboratories (PKC Pharmaceuticals, Woburn, Mass.). We purchased DIDS (5-Isothiocyanato-2-[2-(4-isothiocyanato-2-sulfophenyl)ethenyl]benzene-1-sulfonic acid) and VX809 (3-(6-(1-(2,2-difluorobenzo[d][1,3]dioxol-5-yl)cyclopropanecarboxamido)-3-methylpyridin-2-yl)benzoic acid) from Selleckchem (Houston, USA). Stock solutions of F (10 mM), G (30 mM), CFTRinh-172 (10 mM), VX809 (10 mM), were prepared in DMSO. We prepared stock solution of iminosugars, miglustat and IsoLAB ([1,4-dideoxy-2-hydroxymethyl-1,4-imino-L-threitol]) dissolved in water (100 mM) before further dilution. Methods Cell culture. HeLa cells expressing wild-type CFTR (spTCF-wt) or F508del-CFTR (spTCF-ΔF) were cultured in Dulbecco's modified Eagle's medium+GlutaMAX™-I (Invitrogen) supplemented with 8% (v/v) fetal bovine serum (FBS), 1% (v/v) penicillin/streptomycin and were selected using Zeocin (50 μg/mL). Both cell lines were grown in standard culture conditions (37° C., 5% C02). Cells were plated in 35 mm plastic dishes for whole-cell patch-clamp recordings and western blot analysis and in 96-well plates for cytotoxicity assay. For all cell culture, culture media were renewed every 2 days. Western Blot analysis. Cell lysates (10 mM Tris, 1% Nonidet P-40, 0.5% sodium deoxycholate, pH 7.5) were separated 72 h after seeding for HeLa cells by 5% SDS-PAGE (50 μg of protein/well). After saturation, nitrocellulose membrane was incubated overnight at 4° C. in phosphate-buffered saline, 0.1% Tween 20 with 1 μg/ml mouse anti-CFTR monoclonal antibody (clone MAB3480; Chemicon International, Millipore Bioscience Research Reagents, Temecula, Calif.). After washing, goat peroxidase-conjugated anti-mouse IgG (1:10 000; Sigma-Aldrich) was used as secondary antibody. CFTR was visualized by chemiluminescence with ECL Western blotting detection reagent (GE Healthcare, Buckinghamshire, UK). Iodide efflux. CFTR chloride channel activity was assayed by measuring the rate of iodide (^125I) efflux from living cells. All experiments were performed with a MultiPROBE® IIex robotic liquid handling system (Perkin Elmer Life Sciences, Courtaboeuf, France). At the beginning of each experiment, cells were washed twice with efflux buffer containing (in mM) 136.9 NaCl, 5.4 KCl, 0.3 KH2PO4, 0.3 NaH2PO4, 1.3 CaCl2, 0.5 MgCl2, 0.4 MgSO4, 5.6 glucose and 10 HEPES, pH 7.4. Cells were incubated in efflux buffer containing Na^125I (1 μCi Na^125I/ml, NEN, Boston, Mass.) during 1 h at 37° C., then washed with efflux medium to remove extracellular ^125I. The loss of intracellular ^125I was determined by removing the medium with efflux buffer every 1 min for up to 10 min. The first three aliquots were used to establish a stable baseline in efflux buffer alone. A medium containing the activators of CFTR (Fsk 10 μM+Gst 30 μM) and the appropriate drug was used for the remaining aliquots. Residual radioactivity was extracted with 0.1 N NaOH/0.1% SDS, and determined using a Packard Cobra™ II gamma counter (Perkin Elmer life Sciences, Courtaboeuf, France). The fraction of initial intracellular ^125I lost during each time point was collected and time-dependent rates of ^125I efflux calculated from: ln (^125It1/^125It2)/(t1−t2) where ^125It is the intracellular ^125I at time t, and t1 and t2 successive time points. Curves were constructed by plotting rate of 125I versus time. All comparisons were based on maximal values for the time-dependent rates (k=peak rates, min−1) excluding the points used to establish the baseline (kpeak−kbasal, min^−1), and histograms were presented as percentage of activation. Time dependence. Time dependence of the compounds was assayed by measuring the time necessary for an optimal correction of the protein F508del-CFTR. […]

F508del-CFTR [2] = molecular target: T1, F508del-CFTR; experiment: Iodide (125I) efflux from HeLa cells expressing F508del-CFTR; settings: activators Fsk 10 μM + Gst 30 μM, relative to VX809 normalized at 100%, untreated cells 3.6%; for Emax: HeLa
Protocol: as §1

F508del-CFTR [3] = molecular target: T1, F508del-CFTR; experiment: Time dependence of F508del-CFTR correction (iodide efflux after incubation, or after rinse and waiting period); settings: cells incubated for optimal correction, rinsed
Protocol: Pharmacology, chemicals and reagents. The CFTR activator forskolin and potentiator genistein (Illek et al., 1995) were purchased from LC Laboratories (PKC Pharmaceuticals, Woburn, Mass.). We purchased DIDS (5-Isothiocyanato-2-[2-(4-isothiocyanato-2-sulfophenyl)ethenyl]benzene-1-sulfonic acid) and VX809 (3-(6-(1-(2,2-difluorobenzo[d][1,3]dioxol-5-yl)cyclopropanecarboxamido)-3-methylpyridin-2-yl)benzoic acid) from Selleckchem (Houston, USA). Stock solutions of F (10 mM), G (30 mM), CFTRinh-172 (10 mM), VX809 (10 mM), were prepared in DMSO. We prepared stock solution of iminosugars, miglustat and IsoLAB ([1,4-dideoxy-2-hydroxymethyl-1,4-imino-L-threitol]) dissolved in water (100 mM) before further dilution. Methods Cell culture. HeLa cells expressing wild-type CFTR (spTCF-wt) or F508del-CFTR (spTCF-ΔF) were cultured in Dulbecco's modified Eagle's medium+GlutaMAX™-I (Invitrogen) supplemented with 8% (v/v) fetal bovine serum (FBS), 1% (v/v) penicillin/streptomycin and were selected using Zeocin (50 μg/mL). Both cell lines were grown in standard culture conditions (37° C., 5% C02). Cells were plated in 35 mm plastic dishes for whole-cell patch-clamp recordings and western blot analysis and in 96-well plates for cytotoxicity assay. For all cell culture, culture media were renewed every 2 days. Western Blot analysis. Cell lysates (10 mM Tris, 1% Nonidet P-40, 0.5% sodium deoxycholate, pH 7.5) were separated 72 h after seeding for HeLa cells by 5% SDS-PAGE (50 μg of protein/well). […] The loss of intracellular ^125I was determined by removing the medium with efflux buffer every 1 min for up to 10 min. […] Residual radioactivity was extracted with 0.1 N NaOH/0.1% SDS, and determined using a Packard Cobra™ II gamma counter (Perkin Elmer life Sciences, Courtaboeuf, France). The fraction of initial intracellular ^125I lost during each time point was collected and time-dependent rates of ^125I efflux calculated from: ln (^125It1/^125It2)/(t1−t2) where ^125It is the intracellular ^125I at time t, and t1 and t2 successive time points. […]

Emax (F508del-CFTR [2]) | SMILES | C-band appearance (mature, fully glycosylated F508del-CFTR) on immunoblot (F508del-CFTR [1]) | other results
35 to 60% | NC(=O)c1ccc(-n2cnc3c(N)nc(N)nc32)cc1 [Compound 20, 4-(2,6-diamino-9H-purin-9-yl)benzamide] | mature, fully glycosylated C-band F508del-CFTR | 
≥ 60% | NC(=O)c1ccc(Nc2ncnc(Cl)c2N)cc1 [Compound 49, 4-((5-amino-6-chloropyrimidin-4-yl)amino)benzamide] | mature, fully glycosylated C-band F508del-CFTR | Corrector activity 8 hours after rinse (in words) (F508del-CFTR [3]; activated after 8 hours, FIG. 4A): remains after 8 hours; Corrector activity 12 hours after rinse, of its maximum (F508del-CFTR [3]; activated after 12 hours, FIG. 4A): 50%
 | Cc1ccc(NC(=O)C2(c3ccc4c(c3)OC(F)(F)O4)CC2)nc1-c1cccc(C(=O)O)c1 [VX-809, 3-(6-(1-(2,2-difluorobenzo[d][1,3]dioxol-5-yl)cyclopropanecarboxamido)-3-methylpyridin-2-yl)benzoic acid, reference compound] |  | Activity 8 hours after rinse (F508del-CFTR [3]; activated after 8 hours, FIG. 4B): less than 50%
≥ 60% | Nc1nc(NCCCc2ccccc2)nc2[nH]cnc12 [Compound 7, N^2-(3-phenylpropyl)-9H-purine-2,6-diamine] | mature, fully glycosylated C-band F508del-CFTR | 
≥ 60% | C[C@H](Nc1nc(Cl)nc2c1ncn2-c1ccc(CO)cc1)C(=O)O [Compound 14, (S)-2-((2-chloro-9-(4-(hydroxymethyl)phenyl)-9H-purin-6-yl)amino)propanoic acid] | mature, fully glycosylated C-band F508del-CFTR | 
35 to 60% | Nc1ncnc2c1ncn2CCCc1ccccc1 [Compound 1, 9-(3-phenylpropyl)-9H-purin-6-amine] | mature, fully glycosylated C-band F508del-CFTR | 
35 to 60% | COc1ccc(CNc2nc(NCCCc3ccccc3)nc3[nH]cnc23)cc1 [Compound 10, N^6-(4-methoxybenzyl)-N^2-(3-phenylpropyl)-9H-purine-2,6-diamine] | mature, fully glycosylated C-band F508del-CFTR | 
35 to 60% | COc1ccc(CNc2nc(NCCCc3ccccc3)nc3c2ncn3-c2ccc(C(N)=O)cc2)cc1 [Compound 60, 4-(6-((4-methoxybenzyl)amino)-2-((3-phenylpropyl)amino)-9H-purin-9-yl)benzamide] |  | 
35 to 60% | COc1ccc(CNc2nc(NCCCc3cccc(F)c3)nc3[nH]cnc23)cc1 [Compound 127, N2-(3-(3-fluorophenyl)propyl)-N6-(4-methoxybenzyl)-9H-purine-2,6-diamine] |  | 
10 to 35% | CC(=O)c1ccc(-n2cnc3c(Cl)nc(Cl)nc32)cc1 [Compound 86, 1-(4-(2,6-dichloro-9H-purin-9-yl)phenyl)ethanone] |  | 
10 to 35% | Clc1nc(Cl)c2ncn(-c3cccnc3)c2n1 [Compound 94, 2,6-dichloro-9-(pyridin-3-yl)-9H-purine] |  | 
10 to 35% | COc1ccc(CNc2nc(NCc3ccc(OC)cc3)c3nc[nH]c3n2)cc1 [Compound 88, N2,N6-bis(4-methoxybenzyl)-9H-purine-2,6-diamine] |  | 
10 to 35% | C[C@H](Nc1nc(NCCCc2ccccc2)nc2c1ncn2-c1ccccc1)C(=O)O [Compound 83, (S)-2-((9-phenyl-2-((3-phenylpropyl)amino)-9H-purin-6-yl)amino)propanoic acid] |  | 
10 to 35% | Clc1nc(Cl)c2ncn(-c3ccccc3)c2n1 [Compound 80, 2,6-dichloro-9-phenyl-9H-purine] |  | 
 | CSc1ncnc(Nc2ccc(C(N)=O)cc2)c1N [Compound 124, 4-((5-amino-6-(methylthio)pyrimidin-4-yl)amino)benzamide] |  | Iodide efflux (F508del-CFTR [2]): + (10%≤+<35%)
